Measured values reported in ChEMBL document CHEMBL4321785, “Challenges and Opportunities for Therapeutics Targeting the Voltage-Gated Sodium Channel Isoform NaV1.7” (J Med Chem, 2019).

What was measured:
[1] = biological target: Sodium channel protein type 9 subunit alpha (Homo sapiens, UniProt Q15858); experiment: Inhibition of human Nav1.7 expressed in HEK293 cells by electrophysiology assay; assay type: cell-based
[2] = biological target: T1, Sodium channel protein type 1 subunit alpha (Homo sapiens, UniProt P35498); experiment: Inhibition of human Nav1.1 expressed in HEK293 cells by electrophysiology assay; assay type: cell-based
[3] = biological target: T2, Sodium channel protein type 2 subunit alpha (Homo sapiens, UniProt Q99250); experiment: Inhibition of human Nav1.2 expressed in HEK293 cells by electrophysiology assay; assay type: cell-based
T2 sequence (Q99250 whole entry): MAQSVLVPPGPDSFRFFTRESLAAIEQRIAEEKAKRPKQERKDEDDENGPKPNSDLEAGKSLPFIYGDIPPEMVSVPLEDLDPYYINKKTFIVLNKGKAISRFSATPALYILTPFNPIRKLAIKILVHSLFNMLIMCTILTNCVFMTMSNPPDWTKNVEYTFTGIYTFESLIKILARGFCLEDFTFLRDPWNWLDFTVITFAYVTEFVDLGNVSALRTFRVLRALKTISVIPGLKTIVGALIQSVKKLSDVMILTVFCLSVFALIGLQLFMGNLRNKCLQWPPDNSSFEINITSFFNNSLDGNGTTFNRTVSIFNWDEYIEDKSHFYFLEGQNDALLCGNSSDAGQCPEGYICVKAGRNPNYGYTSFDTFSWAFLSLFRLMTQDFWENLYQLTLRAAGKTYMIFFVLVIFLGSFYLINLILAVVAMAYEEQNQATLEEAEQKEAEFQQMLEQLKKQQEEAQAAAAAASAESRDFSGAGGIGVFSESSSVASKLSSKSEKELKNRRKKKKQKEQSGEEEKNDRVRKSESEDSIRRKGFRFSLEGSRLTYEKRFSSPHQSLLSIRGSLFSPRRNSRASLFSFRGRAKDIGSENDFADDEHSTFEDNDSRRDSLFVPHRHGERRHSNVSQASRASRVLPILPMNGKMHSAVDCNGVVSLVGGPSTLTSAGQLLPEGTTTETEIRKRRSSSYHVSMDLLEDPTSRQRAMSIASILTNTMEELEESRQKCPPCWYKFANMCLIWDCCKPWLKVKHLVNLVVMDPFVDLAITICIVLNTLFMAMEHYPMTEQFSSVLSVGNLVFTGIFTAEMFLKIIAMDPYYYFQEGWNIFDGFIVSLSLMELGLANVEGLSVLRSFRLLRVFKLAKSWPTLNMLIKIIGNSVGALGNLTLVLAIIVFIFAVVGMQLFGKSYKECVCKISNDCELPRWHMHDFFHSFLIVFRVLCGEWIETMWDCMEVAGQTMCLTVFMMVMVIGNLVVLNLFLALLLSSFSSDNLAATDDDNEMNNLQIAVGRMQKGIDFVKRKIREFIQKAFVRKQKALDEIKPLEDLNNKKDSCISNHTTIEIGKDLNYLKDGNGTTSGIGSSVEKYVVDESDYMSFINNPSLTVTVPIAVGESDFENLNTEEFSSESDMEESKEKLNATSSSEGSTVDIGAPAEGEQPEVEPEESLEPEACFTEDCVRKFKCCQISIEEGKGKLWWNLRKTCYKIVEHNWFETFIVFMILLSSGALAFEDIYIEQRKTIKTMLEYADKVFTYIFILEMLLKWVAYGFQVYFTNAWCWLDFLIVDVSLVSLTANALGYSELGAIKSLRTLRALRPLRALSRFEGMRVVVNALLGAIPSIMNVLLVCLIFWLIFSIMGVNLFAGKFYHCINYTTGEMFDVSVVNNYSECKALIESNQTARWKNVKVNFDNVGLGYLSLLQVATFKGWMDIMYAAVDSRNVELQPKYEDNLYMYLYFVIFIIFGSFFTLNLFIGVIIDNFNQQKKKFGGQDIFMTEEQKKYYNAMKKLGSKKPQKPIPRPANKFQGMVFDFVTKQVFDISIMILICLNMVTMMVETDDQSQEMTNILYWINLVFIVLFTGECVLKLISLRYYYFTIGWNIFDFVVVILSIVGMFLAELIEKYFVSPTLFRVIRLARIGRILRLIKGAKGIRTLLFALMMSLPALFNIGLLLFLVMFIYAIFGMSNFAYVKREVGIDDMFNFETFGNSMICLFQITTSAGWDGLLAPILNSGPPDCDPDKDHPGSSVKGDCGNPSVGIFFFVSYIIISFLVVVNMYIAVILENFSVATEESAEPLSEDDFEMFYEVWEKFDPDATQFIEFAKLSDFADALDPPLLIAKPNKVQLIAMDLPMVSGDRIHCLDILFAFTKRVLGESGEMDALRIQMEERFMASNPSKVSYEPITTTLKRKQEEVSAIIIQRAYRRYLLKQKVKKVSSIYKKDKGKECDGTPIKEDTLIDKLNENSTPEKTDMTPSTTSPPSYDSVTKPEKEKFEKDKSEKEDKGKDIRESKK

[4] = biological target: T3, Sodium channel protein type 4 subunit alpha (Homo sapiens, UniProt P35499); experiment: Inhibition of human Nav1.4 expressed in HEK293 cells by electrophysiology assay; assay type: cell-based
[5] = biological target: T4, Sodium channel protein type 5 subunit alpha (Homo sapiens, UniProt Q14524); experiment: Inhibition of human Nav1.5 expressed in HEK293 cells by electrophysiology assay; assay type: cell-based
[6] = biological target: T5, Sodium channel protein type 8 subunit alpha (Homo sapiens, UniProt Q9UQD0); experiment: Inhibition of human Nav1.6 expressed in HEK293 cells by electrophysiology assay; assay type: cell-based
T5 sequence (Q9UQD0 whole entry): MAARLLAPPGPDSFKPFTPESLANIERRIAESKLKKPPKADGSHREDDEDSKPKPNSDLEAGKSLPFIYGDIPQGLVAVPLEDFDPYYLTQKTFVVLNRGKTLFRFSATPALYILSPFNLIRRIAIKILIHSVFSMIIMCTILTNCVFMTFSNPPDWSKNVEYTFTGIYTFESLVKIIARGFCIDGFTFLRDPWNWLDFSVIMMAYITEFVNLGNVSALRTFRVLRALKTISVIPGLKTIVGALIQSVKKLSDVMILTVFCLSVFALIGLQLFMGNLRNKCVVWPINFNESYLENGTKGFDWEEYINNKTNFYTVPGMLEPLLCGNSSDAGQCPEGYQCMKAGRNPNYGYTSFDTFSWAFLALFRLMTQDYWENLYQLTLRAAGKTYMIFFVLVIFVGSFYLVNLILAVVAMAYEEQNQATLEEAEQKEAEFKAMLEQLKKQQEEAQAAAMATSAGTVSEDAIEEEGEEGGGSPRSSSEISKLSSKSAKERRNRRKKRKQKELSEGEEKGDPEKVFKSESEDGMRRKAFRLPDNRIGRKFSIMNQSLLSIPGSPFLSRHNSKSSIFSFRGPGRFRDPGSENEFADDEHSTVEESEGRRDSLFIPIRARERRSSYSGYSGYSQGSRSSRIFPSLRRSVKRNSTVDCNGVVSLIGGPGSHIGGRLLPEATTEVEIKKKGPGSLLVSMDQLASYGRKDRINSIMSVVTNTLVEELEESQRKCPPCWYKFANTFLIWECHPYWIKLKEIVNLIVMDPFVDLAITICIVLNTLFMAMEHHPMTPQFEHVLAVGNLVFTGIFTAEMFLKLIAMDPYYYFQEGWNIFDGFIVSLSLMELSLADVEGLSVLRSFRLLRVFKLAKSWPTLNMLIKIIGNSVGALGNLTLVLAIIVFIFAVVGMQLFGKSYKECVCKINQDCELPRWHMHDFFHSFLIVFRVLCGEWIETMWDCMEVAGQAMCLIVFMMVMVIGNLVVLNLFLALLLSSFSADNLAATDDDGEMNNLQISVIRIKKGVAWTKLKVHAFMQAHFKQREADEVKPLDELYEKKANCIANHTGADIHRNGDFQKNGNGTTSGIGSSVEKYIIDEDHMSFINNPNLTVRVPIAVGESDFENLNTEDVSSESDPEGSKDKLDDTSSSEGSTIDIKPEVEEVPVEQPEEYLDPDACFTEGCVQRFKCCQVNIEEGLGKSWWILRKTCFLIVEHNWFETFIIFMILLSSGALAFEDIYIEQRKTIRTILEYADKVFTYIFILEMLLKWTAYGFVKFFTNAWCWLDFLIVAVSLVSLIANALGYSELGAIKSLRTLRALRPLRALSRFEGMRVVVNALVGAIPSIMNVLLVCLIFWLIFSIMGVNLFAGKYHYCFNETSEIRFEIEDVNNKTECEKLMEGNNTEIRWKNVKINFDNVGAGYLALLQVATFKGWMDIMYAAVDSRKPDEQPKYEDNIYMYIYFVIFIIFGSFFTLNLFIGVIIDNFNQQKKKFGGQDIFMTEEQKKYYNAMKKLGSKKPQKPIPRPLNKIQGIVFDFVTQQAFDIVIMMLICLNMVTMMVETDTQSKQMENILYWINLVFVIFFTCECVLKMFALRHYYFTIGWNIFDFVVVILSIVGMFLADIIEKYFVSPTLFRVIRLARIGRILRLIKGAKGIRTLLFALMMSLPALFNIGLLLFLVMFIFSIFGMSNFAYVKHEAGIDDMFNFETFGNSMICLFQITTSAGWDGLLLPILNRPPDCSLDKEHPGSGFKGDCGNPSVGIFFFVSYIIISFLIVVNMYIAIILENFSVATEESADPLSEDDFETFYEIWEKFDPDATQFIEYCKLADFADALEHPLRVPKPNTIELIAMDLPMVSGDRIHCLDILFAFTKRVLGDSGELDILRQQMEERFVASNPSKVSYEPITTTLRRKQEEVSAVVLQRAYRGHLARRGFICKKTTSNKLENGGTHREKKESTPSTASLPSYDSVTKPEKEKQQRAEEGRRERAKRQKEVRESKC

[7] = species: Homo sapiens; experiment: Selectivity index, ratio of IC50 for inhibition of human Nav1.1 expressed in HEK293 cells by electrophysiology assay to IC50 for inhibition of human Nav1.7 expressed in HEK293 cells by electrophysiology assay; assay type: cell-based
[8] = species: Homo sapiens; experiment: Selectivity index, ratio of IC50 for inhibition of human Nav1.2 expressed in HEK293 cells by electrophysiology assay to IC50 for inhibition of human Nav1.7 expressed in HEK293 cells by electrophysiology assay; assay type: cell-based
[9] = species: Homo sapiens; experiment: Selectivity index, ratio of IC50 for inhibition of human Nav1.4 expressed in HEK293 cells by electrophysiology assay to IC50 for inhibition of human Nav1.7 expressed in HEK293 cells by electrophysiology assay; assay type: cell-based
[10] = species: Homo sapiens; experiment: Selectivity index, ratio of IC50 for inhibition of human Nav1.5 expressed in HEK293 cells by electrophysiology assay to IC50 for inhibition of human Nav1.7 expressed in HEK293 cells by electrophysiology assay; assay type: cell-based
[11] = species: Homo sapiens; experiment: Selectivity index, ratio of IC50 for inhibition of human Nav1.6 expressed in HEK293 cells by electrophysiology assay to IC50 for inhibition of human Nav1.7 expressed in HEK293 cells by electrophysiology assay; assay type: cell-based
[12] = tested on: Rattus norvegicus; experiment: Analgesic activity in it dosed rat model of formalin-induced pain; assay type: functional
[13] = tested on: Rattus norvegicus; experiment: Analgesic activity in it dosed rat model of pain by tail flick test; assay type: functional
[14] = tested on: Rattus norvegicus; experiment: Analgesic activity in it dosed rat model of pain by hot plate test; assay type: functional
[15] = tested on: Rattus norvegicus; experiment: Analgesic activity in po dosed rat model of pain by Hargreaves test; assay type: functional
[16] = biological target: T3, Sodium channel protein type 4 subunit alpha; experiment: Binding affinity to human recombinant Nav1.4 by radioligand binding assay
[17] = biological target: T4, Sodium channel protein type 5 subunit alpha; experiment: Binding affinity to human recombinant Nav1.5 by radioligand binding assay
[18] = Unbound fraction in mouse plasma; assay type: ADME, cell-free
[19] = Ratio of unbound plasma concentration in mouse model of inherited erythromelalgia to Kd for binding affinity to recombinant human Nav1.7 by radioligand binding assay; assay type: ADME; settings: in vivo
[20] = Ratio of unbound plasma concentration in mouse model of formalin-induced pain to Kd for binding affinity to mouse Nav1.7 by radioligand binding assay; assay type: ADME; settings: in vivo
[21] = Ratio of unbound plasma concentration in mouse model of CFA-induced cold allodynia to Kd for binding affinity to mouse Nav1.7 by radioligand binding assay; assay type: ADME; settings: in vivo
[22] = Ratio of unbound plasma concentration in mouse model of STZ-induced pain measured to Kd for binding affinity to mouse Nav1.7 by radioligand binding assay; assay type: ADME; settings: in vivo
[23] = biological target: Sodium channel protein type 9 subunit alpha (Mus musculus, UniProt Q62205); experiment: Binding affinity to mouse Nav1.7 by radioligand binding assay
[24] = biological target: T1, Sodium channel protein type 1 subunit alpha; experiment: Binding affinity to human recombinant Nav1.1 by radioligand binding assay
[25] = biological target: T2, Sodium channel protein type 2 subunit alpha; experiment: Binding affinity to human recombinant Nav1.2 by radioligand binding assay
[26] = biological target: Sodium channel protein type 3 subunit alpha (Homo sapiens, UniProt Q9NY46); experiment: Binding affinity to human recombinant Nav1.3 by radioligand binding assay
[27] = biological target: T5, Sodium channel protein type 8 subunit alpha; experiment: Binding affinity to human recombinant Nav1.6 by radioligand binding assay
[28] = biological target: Sodium channel protein type 10 subunit alpha (Mus musculus, UniProt Q6QIY3); experiment: Binding affinity to mouse Nav1.8 […] by radioligand binding assay
[29] = species: Homo sapiens; experiment: Selectivity ratio of Kd for binding affinity to human recombinant Nav1.1 by radioligand binding assay to Kd for binding affinity to human recombinant Nav1.7 by radioligand binding assay
[30] = species: Homo sapiens; experiment: Selectivity ratio of Kd for binding affinity to human recombinant Nav1.2 by radioligand binding assay to Kd for binding affinity to human recombinant Nav1.7 by radioligand binding assay
[31] = species: Homo sapiens; experiment: Selectivity ratio of Kd for binding affinity to human recombinant Nav1.3 by radioligand binding assay to Kd for binding affinity to human recombinant Nav1.7 by radioligand binding assay
[32] = species: Homo sapiens; experiment: Selectivity ratio of Kd for binding affinity to human recombinant Nav1.4 by radioligand binding assay to Kd for binding affinity to human recombinant Nav1.7 by radioligand binding assay
[33] = species: Homo sapiens; experiment: Selectivity ratio of Kd for binding affinity to human recombinant Nav1.5 by radioligand binding assay to Kd for binding affinity to human recombinant Nav1.7 by radioligand binding assay
[34] = species: Homo sapiens; experiment: Selectivity ratio of Kd for binding affinity to human recombinant Nav1.6 by radioligand binding assay to Kd for binding affinity to human recombinant Nav1.7 by radioligand binding assay
[35] = Plasma concentration in mouse model of pain at 30 mg/kg, po during hot plate test; assay type: ADME, organism-based; settings: in vivo
[36] = Plasma concentration in mouse model of pain at 30 mg/kg, po during tail immersion test; assay type: ADME, organism-based; settings: in vivo
[37] = Plasma concentration in mouse model of CFA-induced pain at 30 mg/kg, po during Hargreaves test; assay type: ADME, organism-based; settings: in vivo
[38] = Ratio of plasma concentration in mouse model of pain at 30 mg/kg, po during hot plate test to IC50 for inhibition of mouse Nav1.7 expressed in HEK293 cells by electrophysiology assay; assay type: organism-based; settings: in vivo
[39] = Ratio of plasma concentration in mouse model of pain at 30 mg/kg, po during tail immersion test to IC50 for inhibition of mouse Nav1.7 expressed in HEK293 cells by electrophysiology assay; assay type: organism-based; settings: in vivo
[40] = Ratio of plasma concentration in mouse model of CFA-induced pain at 30 mg/kg, po during Hargreaves test to IC50 for inhibition of mouse Nav1.7 expressed in HEK293 cells by electrophysiology assay; assay type: organism-based; settings: in vivo

CSCC[C@@H]1NC(=O)CNC(=O)[C@H](CCC(=O)O)NC(=O)[C@@H]2CSSC[C@H](NC(=O)[C@H](Cc3ccc(O)cc3)NC(=O)[C@H](Cc3ccc(O)cc3)NC(=O)[C@@H]3CCCN3C(=O)CN)C(=O)N[C@@H](CCC(N)=O)C(=O)N[C@@H](CCCCN)C(=O)N[C@@H](Cc3c[nH]c4ccccc34)C(=O)N[C@@H](CCSC)C(=O)N[C@@H](CCC(N)=O)C(=O)N[C@@H]([C@@H](C)O)C(=O)N[C@H]3CSSC[C@H](NC(=O)[C@H](C(C)C)NC1=O)C(=O)N[C@@H](CCCNC(=N)N)C(=O)N[C@@H](CC(C)C)C(=O)N[C@@H](Cc1c[nH]c4ccccc14)C(=O)N[C@H](C(=O)N[C@@H](CCCCN)C(=O)N[C@@H](CCCCN)C(=O)N[C@@H](CCCCN)C(=O)N[C@@H](CC(C)C)C(=O)N[C@@H](CC(C)C)C(=O)O)CSSC[C@H](NC(=O)[C@H](CCCCN)NC(=O)[C@H](CCCNC(=N)N)NC(=O)[C@H](CCC(=O)O)NC(=O)[C@H](CO)NC(=O)[C@H](CC(=O)O)NC3=O)C(=O)N2
IC50 [1]: 10 nM | IC50 [2]: 10000 nM | IC50 [3]: 1600 nM | IC50 [4]: 5300 nM | IC50 [5]: > 10000 nM | IC50 [6]: 1000 nM | Ratio IC50 [7]: 1000 | Ratio IC50 [8]: 160 | Ratio IC50 [9]: 530 | Ratio IC50 [10]: > 1000 | Ratio IC50 [11]: 100 | ED [12]: 1 to 5 µg | ED [13]: 0.3 to 7.5 µg | ED [14]: 0.3 to 7.5 µg | ED [15]: 1.4 mg

CS(=O)(=O)NC(=O)c1cc(C2CC2)c(OCC2CCN(Cc3cc(C(F)(F)F)ccc3Cl)CC2)cc1F
Kd [16]: 28 nM | Kd [17]: 370 nM | fraction unbound [18]: 0.002 | Ratio [19]: 0.6 | Ratio [20]: 5.5 | Ratio [21]: 7.5 | Ratio [22]: 12 | Kd [23]: 2.1 nM | Kd [24]: 140 nM | Kd [25]: 64 nM | Kd [26]: 180 nM | Kd [27]: 210 nM | Kd [28]: 13000 nM | Ratio Ki [29]: 40 | Ratio Ki [30]: 18 | Ratio Ki [31]: 51 | Ratio Ki [32]: 8 | Ratio Ki [33]: 100 | Ratio Ki [34]: 60 | concentration [35]: 10.5 µM | concentration [36]: 10.5 µM | concentration [37]: 16.1 µM | Ratio [38]: 10 | Ratio [39]: 10 | Ratio [40]: 15
